Experimental data: patent US20240217989A1, “Heteroaryl Fluoroalkenes As DGK Inhibitors” (Incyte Corporation, priority 2022, published 2024)

Columns and labels:
[1] = target: T1, DGKα (Homo sapiens, UniProt P23743); experiment: In vitro DGKα inhibition assay (ADP-Glo); format: biochemical; settings: His-tagged human recombinant enzyme; 0.1 nM DGKα, 50 μM ATP, 20 μM DLG; 90 minute incubation; ADP-Glo luminescence
T1 construct: His; purchased Signal Chem D21-10BH
Method in brief: (§1)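 His-tagged human recombinant enzymes with DLG lipid substrate (20 μM) in Tris pH 7.5 buffer with MgCl2/CaCl2; DGKα 0.1 nM with 50 μM ATP, DGKζ 0.4 nM with 30 μM ATP.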

[2] = target: DGKζ (Homo sapiens, UniProt Q13574); experiment: In vitro DGKζ inhibition assay (ADP-Glo); format: biochemical; settings: His-tagged human recombinant enzyme; 0.4 nM DGKζ, 30 μM ATP, 20 μM DLG; 90 minute incubation; ADP-Glo luminescence
Sequence of DGKζ (Q13574 whole entry): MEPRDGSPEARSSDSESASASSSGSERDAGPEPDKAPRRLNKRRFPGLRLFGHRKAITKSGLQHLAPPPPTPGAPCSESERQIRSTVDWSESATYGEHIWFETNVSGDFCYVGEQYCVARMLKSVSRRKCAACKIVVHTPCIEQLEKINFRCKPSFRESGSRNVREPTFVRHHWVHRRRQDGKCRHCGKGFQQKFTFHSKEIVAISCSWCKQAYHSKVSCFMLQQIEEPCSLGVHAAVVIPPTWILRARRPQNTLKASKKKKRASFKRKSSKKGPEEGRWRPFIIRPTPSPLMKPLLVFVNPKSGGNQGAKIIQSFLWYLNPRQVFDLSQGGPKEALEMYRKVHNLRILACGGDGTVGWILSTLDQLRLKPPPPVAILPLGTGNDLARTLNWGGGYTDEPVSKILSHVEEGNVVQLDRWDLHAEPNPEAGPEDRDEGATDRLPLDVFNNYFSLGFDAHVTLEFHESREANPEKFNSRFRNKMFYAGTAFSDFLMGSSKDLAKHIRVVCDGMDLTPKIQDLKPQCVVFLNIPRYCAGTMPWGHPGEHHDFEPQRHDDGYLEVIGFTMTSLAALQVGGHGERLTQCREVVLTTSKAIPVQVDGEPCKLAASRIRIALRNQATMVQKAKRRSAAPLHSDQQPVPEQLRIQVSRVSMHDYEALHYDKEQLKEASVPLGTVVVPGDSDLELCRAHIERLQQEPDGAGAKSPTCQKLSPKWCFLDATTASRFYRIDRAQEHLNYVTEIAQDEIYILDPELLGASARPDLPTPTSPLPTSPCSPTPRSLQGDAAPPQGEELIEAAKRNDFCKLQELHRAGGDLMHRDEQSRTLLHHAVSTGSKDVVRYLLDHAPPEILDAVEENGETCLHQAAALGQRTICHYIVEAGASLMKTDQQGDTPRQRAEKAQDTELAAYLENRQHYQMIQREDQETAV
Method in brief: as §1

T1 sequence (P23743 whole entry): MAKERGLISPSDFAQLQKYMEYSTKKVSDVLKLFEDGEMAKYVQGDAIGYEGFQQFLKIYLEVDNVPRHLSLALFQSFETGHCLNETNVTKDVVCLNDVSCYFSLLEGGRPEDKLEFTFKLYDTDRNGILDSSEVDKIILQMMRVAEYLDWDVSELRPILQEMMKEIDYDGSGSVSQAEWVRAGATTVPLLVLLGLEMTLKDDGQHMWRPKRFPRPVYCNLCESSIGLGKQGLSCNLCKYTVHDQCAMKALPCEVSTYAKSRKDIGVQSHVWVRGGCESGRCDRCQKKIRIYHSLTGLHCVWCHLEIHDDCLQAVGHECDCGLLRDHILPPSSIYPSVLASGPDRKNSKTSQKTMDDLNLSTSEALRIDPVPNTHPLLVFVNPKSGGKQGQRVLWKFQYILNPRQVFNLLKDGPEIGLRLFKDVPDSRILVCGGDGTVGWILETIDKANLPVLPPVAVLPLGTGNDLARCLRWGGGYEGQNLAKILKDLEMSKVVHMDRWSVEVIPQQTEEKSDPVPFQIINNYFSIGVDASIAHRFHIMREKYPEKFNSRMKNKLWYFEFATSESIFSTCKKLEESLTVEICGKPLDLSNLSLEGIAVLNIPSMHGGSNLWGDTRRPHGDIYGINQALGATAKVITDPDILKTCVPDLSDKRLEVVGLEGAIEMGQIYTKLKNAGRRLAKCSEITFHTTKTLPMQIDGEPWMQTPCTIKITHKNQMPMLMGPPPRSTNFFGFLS

Compound	IC50 [1] [nM]	IC50 [2] [nM]
F/C(=C\c1ccc(OC2CCC2)c(C(F)(F)F)c1N1CCCC2(CCN(CC3CC3)CC2)C1)c1nccc(-c2ccnnc2)n1 [Example 52, (Z)-2-(3-Cyclobutoxy-6-(2-fluoro-2-(4-(pyridazin-4-yl)pyrimidin-2-yl)vinyl)-2-(trifluoromethyl)phenyl)-9-(cyclopropylmethyl)-2,9-diazaspiro[5.5]undecane]	≤ 20	≤ 20
F/C(=C\c1ccc(Oc2ccccc2F)c(C(F)(F)F)c1N1CCCC2(CCN(CC3CC3)CC2)C1)c1nccc(-c2cnsc2)n1 [Example 55, (Z)-4-(2-(2-(2-(9-(Cyclopropylmethyl)-2,9-diazaspiro[5.5]undecan-2-yl)-4-(2-fluorophenoxy)-3-(trifluoromethyl)phenyl)-1-fluorovinyl)pyrimidin-4-yl)isothiazole]	≤ 20	≤ 20
F/C(=C\c1ccc(Oc2ccccc2F)c(C(F)(F)F)c1N1CCCC2(CCN(CC3CC3)CC2)C1)c1cncc(-c2cnsc2)n1 [Example 56, (Z)-4-(6-(2-(2-(9-(Cyclopropylmethyl)-2,9-diazaspiro[5.5]undecan-2-yl)-4-(2-fluorophenoxy)-3-(trifluoromethyl)phenyl)-1-fluorovinyl)pyrazin-2-yl)isothiazole]	≤ 20	≤ 20
F/C(=C\c1ccc(Oc2ccccc2F)c(C(F)(F)F)c1N1CCCC2(CCN(CC3CC3)CC2)C1)c1cncc(N2CC(F)(F)C2)n1 [Example 57, (Z)-9-(Cyclopropylmethyl)-2-(6-(2-(6-(3,3-difluoroazetidin-1-yl)pyrazin-2-yl)-2-fluorovinyl)-3-(2-fluorophenoxy)-2-(trifluoromethyl)phenyl)-2,9-diazaspiro[5.5]undecane]	≤ 20	≤ 20
CCN1CCC2(CCCN(c3c(/C=C(\F)c4cncc(N5CCC(F)(F)C5)n4)ccc(Oc4ccccc4F)c3C(F)(F)F)C2)CC1 [Example 58, (Z)-2-(6-(2-(6-(3,3-Difluoropyrrolidin-1-yl)pyrazin-2-yl)-2-fluorovinyl)-3-(2-fluorophenoxy)-2-(trifluoromethyl)phenyl)-9-ethyl-2,9-diazaspiro[5.5]undecane]	≤ 20	≤ 20
F/C(=C\c1ccc(Oc2ccccc2F)c(C(F)(F)F)c1N1CCCC2(CCN(CC3CC3)CC2)C1)c1cncc(N2CCC(F)(F)C2)n1 [Example 59, (Z)-9-(Cyclopropylmethyl)-2-(6-(2-(6-(3,3-difluoropyrrolidin-1-yl)pyrazin-2-yl)-2-fluorovinyl)-3-(2-fluorophenoxy)-2-(trifluoromethyl)phenyl)-2,9-diazaspiro[5.5]undecane]	≤ 20	≤ 20

Second part, the compound after the results:

IC50 [1] [nM]	IC50 [2] [nM]	Compound
≤ 20	≤ 20	F/C(=C\c1ccc(OC2CCCC2)c(C(F)(F)F)c1N1CCCC2(CCN(CC3CC3)CC2)C1)c1nccc(-c2ccnnc2)n1 [Example 51, (Z)-2-(3-(Cyclopentyloxy)-6-(2-fluoro-2-(4-(pyridazin-4-yl)pyrimidin-2-yl)vinyl)-2-(trifluoromethyl)phenyl)-9-(cyclopropylmethyl)-2,9-diazaspiro[5.5]undecane]
≤ 20	≤ 20	CCN1CCC2(CCCN(c3c(/C=C(\F)c4nccc(-c5ccnnc5)n4)ccc(OC4CCCC4)c3C(F)(F)F)C2)CC1 [Example 53, (Z)-2-(3-(Cyclopentyloxy)-6-(2-fluoro-2-(4-(pyridazin-4-yl)pyrimidin-2-yl)vinyl)-2-(trifluoromethyl)phenyl)-9-ethyl-2,9-diazaspiro[5.5]undecane]
≤ 20	≤ 20	CCN1CCC2(CCCN(c3c(/C=C(\F)c4nccc(-c5ccnnc5)n4)ccc(OC4CC5CC(C5)C4)c3C(F)(F)F)C2)CC1 (stereo not drawn) [Example 54, (Z)-2-(3-(Bicyclo[3.1.1]heptan-3-yloxy)-6-(2-fluoro-2-(4-(pyridazin-4-yl)pyrimidin-2-yl)vinyl)-2-(trifluoromethyl)phenyl)-9-ethyl-2,9-diazaspiro[5.5]undecane]
